Assay results published in ChEMBL document CHEMBL1201862, “PubChem BioAssay data set” (2004).
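These data come from cells grown in 96-well plates and exposed to compound for 48 hours at five concentrations. Abbreviation: GI50, concentration required for 50% inhibition of growth.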 Activity calls are given as the source filed them. Cut-off read from the data, not from the text of the source: active = GI50 up to about 1.1 µM and inactive = higher.

Assays:
Assay in all cases: NCI-60 cell line screen, 48 h
DLD-1 = test system: DLD-1
DMS-114 = test system: DMS-114
HOP-18 = test system: HOP-18
KM-20L2 = test system: KM-20L2
LXFL 529 = test system: LXFL 529
M19-MEL = test system: M19-MEL
SNB-78 = test system: SNB-78
XF498 = test system: XF498
RXF 631 = test system: RXF 631

SMILES | GI50 (DLD-1) | GI50 (DMS-114) | GI50 (HOP-18) | GI50 (KM-20L2) | GI50 (LXFL 529) | GI50 (M19-MEL) | GI50 (SNB-78) | GI50 (XF498) | GI50 (RXF 631)
CCCCN(C)CC(C(C)=O)C(c1ccccc1)c1c(O)c2ccccc2oc1=O (stereo not drawn) | > 100 µM (inactive) | > 100 µM (inactive) | > 100 µM (inactive) | > 100 µM (inactive) | > 100 µM (inactive) | > 100 µM (inactive) | > 100 µM (inactive) | > 100 µM (inactive) | –
NCCCN(CCCN)CCCNCc1c2ccccc2c(CNCCCN(CCCN)CCCN)c2ccccc12 | 14.7 µM (inactive) | – | 6.73 µM (inactive) | 25.2 µM (inactive) | 10.5 µM (inactive) | 7.59 µM (inactive) | 30.8 µM (inactive) | 17.1 µM (inactive) | 16 µM (inactive)
COc1cc(/C=C\c2ccc(SC)cc2)cc(OC)c1OC | 0.0409 µM (active) | < 0.0202 µM (active) | 0.0453 µM (active) | 0.0182 µM (active) | < 0.0221 µM (active) | 0.0278 µM (active) | 0.0452 µM (active) | 0.0908 µM (active) | –
CC(C)C(Sc1nc(-c2ccccc2)c(-c2ccccc2)[nH]1)C(=O)N/N=C/c1ccc([N+](=O)[O-])cc1 (stereo not drawn) | 30.8 µM (inactive) | 25.9 µM (inactive) | – | 15.1 µM (inactive) | 9.98 µM (inactive) | 11.6 µM (inactive) | 24.8 µM (inactive) | 16.2 µM (inactive) | –
O=C1C2C3C=CC(C2C(=O)N1CN1CCOCC1)C1C2C(=O)N(CN4CCOCC4)C(=O)C2C31 (stereo not drawn) | 40.4 µM (inactive) | 16.2 µM (inactive) | 22.1 µM (inactive) | 27.4 µM (inactive) | 19.6 µM (inactive) | 22.9 µM (inactive) | 32.9 µM (inactive) | – | 11.5 µM (inactive)
COc1cc(CC(C(=O)O)C(=O)O)c(OC)cc1CC(C(=O)O)C(=O)O | > 100 µM (inactive) | > 100 µM (inactive) | – | > 100 µM (inactive) | > 100 µM (inactive) | > 100 µM (inactive) | > 100 µM (inactive) | > 100 µM (inactive) | –
COc1ccc(N/N=C(\CCN(C)C)c2ccccc2)cc1 | 1.66 µM (inactive) | 10.9 µM (inactive) | 22.1 µM (inactive) | 0.489 µM (active) | 1.6 µM (inactive) | 3.82 µM (inactive) | 12.8 µM (inactive) | – | –
CC(C)C1=Cc2ccc3c(c2C(=O)C1=O)CCCC3 | 1 µM (active) | 1.16 µM (inactive) | 3.51 µM (inactive) | 19.1 µM (inactive) | 1.08 µM (active) | 2.9 µM (inactive) | 4.93 µM (inactive) | 2.15 µM (inactive) | 9.91 µM (inactive)
O=S(=O)(O)c1cc(/N=N/c2cc(S(=O)(=O)O)c3cccnc3c2O)ccc1/C=C/c1ccc(/N=N/c2cc(S(=O)(=O)O)c3cccnc3c2O)cc1S(=O)(=O)O | > 100 µM (inactive) | > 100 µM (inactive) | > 100 µM (inactive) | > 66.5 µM (inactive) | > 100 µM (inactive) | > 100 µM (inactive) | > 100 µM (inactive) | > 100 µM (inactive) | > 100 µM (inactive)
N#CC1=C(c2ccccc2)C(O)(c2ccccc2)NC1=O (stereo not drawn) | 71.3 µM (inactive) | > 100 µM (inactive) | 31.7 µM (inactive) | 47.5 µM (inactive) | > 100 µM (inactive) | > 100 µM (inactive) | – | > 100 µM (inactive) | 99.8 µM (inactive)
Cc1nc2c(ccc3ncccc32)[nH]1 | > 100 µM (inactive) | > 100 µM (inactive) | > 100 µM (inactive) | > 100 µM (inactive) | > 100 µM (inactive) | > 100 µM (inactive) | – | – | –
COc1cc(C2c3cc4c(cc3[C@@H](OCCN(C)C)C3COC(=O)[C@H]23)OCO4)cc(OC)c1O (stereo partly drawn) | 1.03 µM (active) | – | 0.42 µM (active) | 0.855 µM (active) | 2.79 µM (inactive) | – | 5.13 µM (inactive) | 0.239 µM (active) | 0.0655 µM (active)
CN1CCN(C)C12C=c1ccccc1=CC21CC1 | 26.4 µM (inactive) | 18.2 µM (inactive) | > 75 µM (inactive) | 27.3 µM (inactive) | 17.1 µM (inactive) | 19.3 µM (inactive) | > 72.4 µM (inactive) | 23.9 µM (inactive) | 53.6 µM (inactive)
CC(C)(C)c1cc(COc2c3sc(=S)sc3c(OCc3cc(C(C)(C)C)cc(C(C)(C)C)c3)c3sc(=S)sc23)cc(C(C)(C)C)c1 | > 100 µM (inactive) | – | > 100 µM (inactive) | > 100 µM (inactive) | > 100 µM (inactive) | > 100 µM (inactive) | – | > 100 µM (inactive) | –
COc1ccc2nc(NC(=O)C(=O)NNC(=O)c3ccncc3)sc2c1 | > 100 µM (inactive) | > 100 µM (inactive) | > 100 µM (inactive) | > 100 µM (inactive) | > 100 µM (inactive) | > 100 µM (inactive) | > 100 µM (inactive) | > 100 µM (inactive) | –
O=C1OC(c2ccccc2)=N/C1=C/C=C/c1ccco1 | > 100 µM (inactive) | > 100 µM (inactive) | – | > 100 µM (inactive) | > 100 µM (inactive) | > 100 µM (inactive) | > 100 µM (inactive) | > 100 µM (inactive) | > 100 µM (inactive)
O=C1c2c(nc3ccccc3c2-c2ccccc2)CN1Nc1ccccc1 | > 100 µM (inactive) | > 100 µM (inactive) | – | > 100 µM (inactive) | > 100 µM (inactive) | > 100 µM (inactive) | – | > 100 µM (inactive) | –
O=C1c2ccccc2NC1(c1ccccc1)c1c(-c2ccccc2)[nH]c2ccccc12 (stereo not drawn) | 9.2 µM (inactive) | 15.3 µM (inactive) | 44.8 µM (inactive) | 25.1 µM (inactive) | 20.4 µM (inactive) | 24.3 µM (inactive) | 33.6 µM (inactive) | 44 µM (inactive) | 9.73 µM (inactive)
CCCCCCCCCc1cc(=O)c2ccc(O)cc2o1 | > 100 µM (inactive) | 11.3 µM (inactive) | > 100 µM (inactive) | > 100 µM (inactive) | 41.7 µM (inactive) | > 100 µM (inactive) | 38.9 µM (inactive) | 86.5 µM (inactive) | 46.2 µM (inactive)
CCCCCCc1cc(C(=O)Nc2cccc(C(F)(F)F)c2)nc(N)n1 | > 100 µM (inactive) | > 100 µM (inactive) | > 100 µM (inactive) | > 100 µM (inactive) | > 100 µM (inactive) | > 100 µM (inactive) | > 100 µM (inactive) | – | > 100 µM (inactive)
c1ccc2c(c1)C1CCCCCC21N1CCOCC1 (stereo not drawn) | 84.5 µM (inactive) | 38.8 µM (inactive) | – | > 100 µM (inactive) | 50 µM (inactive) | > 100 µM (inactive) | > 100 µM (inactive) | – | –
CCOC(=O)C(=O)Nc1ccc(Cl)c(C(F)(F)F)c1 | > 100 µM (inactive) | > 100 µM (inactive) | > 100 µM (inactive) | > 100 µM (inactive) | > 100 µM (inactive) | > 100 µM (inactive) | > 100 µM (inactive) | – | > 100 µM (inactive)
CC(C)=CC(C(O)c1ccccc1)S(=O)(=O)c1nccn1C (stereo not drawn) | > 100 µM (inactive) | > 100 µM (inactive) | > 100 µM (inactive) | > 100 µM (inactive) | > 100 µM (inactive) | > 100 µM (inactive) | – | > 100 µM (inactive) | > 100 µM (inactive)
COC12CCC(=O)C=C1c1ccccc1N2C(C)=O (stereo not drawn) | > 100 µM (inactive) | > 100 µM (inactive) | > 100 µM (inactive) | > 100 µM (inactive) | > 100 µM (inactive) | > 100 µM (inactive) | > 100 µM (inactive) | > 100 µM (inactive) | –
COC(=O)C1=C(c2ccc3c(c2)OCO3)OC(c2ccc3c(c2)OCO3)C1 (stereo not drawn) | > 100 µM (inactive) | 30.1 µM (inactive) | 69.7 µM (inactive) | > 100 µM (inactive) | 38.4 µM (inactive) | > 100 µM (inactive) | > 100 µM (inactive) | > 100 µM (inactive) | > 100 µM (inactive)
CC1CC2(CC[C@@H]1O)OCCO2 (stereo partly drawn) | > 100 µM (inactive) | – | – | – | > 100 µM (inactive) | > 100 µM (inactive) | > 100 µM (inactive) | > 100 µM (inactive) | > 100 µM (inactive)
COc1ccc(/C=c2\sc3n(c2=O)C(N)=C(C#N)C(c2ccc(OC)cc2)C=3c2nc3ccccc3[nH]2)cc1 (stereo not drawn) | > 10 µM (inactive) | 30.8 µM (inactive) | – | 42.2 µM (inactive) | – | 28.7 µM (inactive) | – | – | –
O=C1C(O)=C(CN(CCCl)CCCl)C(=O)c2ccccc21 | 44.3 µM (inactive) | – | – | 28.7 µM (inactive) | 48.3 µM (inactive) | 54.6 µM (inactive) | 70.8 µM (inactive) | > 100 µM (inactive) | 87.9 µM (inactive)
CC(C)N1C(C)[C@@H](c2ccccc2)O[P@@]1(=O)CC1=CCCCC1 (stereo partly drawn) | > 100 µM (inactive) | 51.4 µM (inactive) | > 100 µM (inactive) | > 100 µM (inactive) | > 100 µM (inactive) | > 100 µM (inactive) | – | > 100 µM (inactive) | –
